Results from publication PMC3985843 (Journal of the American Chemical Society, 2014).

Tests used:
Format in all cases: cell-based
[1] = tested on: P. falciparum 7G8 (CQR) strain; assay: in vitro antimalarial activity, chloroquine-resistant 7G8 strain; conditions: Plasmodium falciparum, 7G8, read-out: IC50 against 7G8
[2] = tested on: P. falciparum D6 (CQS) strain; assay: in vitro antimalarial activity, chloroquine-sensitive D6 strain; conditions: Plasmodium falciparum, D6, read-out: IC50 against D6
[3] = tested on: P. falciparum Dd2 (CQR) strain; assay: in vitro antimalarial activity, chloroquine-resistant Dd2 strain; conditions: Plasmodium falciparum, DD2, read-out: IC50 against Dd2

| Compound | IC50 [1] | IC50 [2] | IC50 [3] |
| --- | --- | --- | --- |
| CO[C@@H]1CC(c2ccc[nH]2)=N[C@]12O[C@@H](C)C[C@@H]1CCCCCCCc3ccc([nH]3)[C@H]12 [compound 5, marineosin A] | 199 nM | 138 nM | 127 nM |
| CCN(CC)CCCC(C)Nc1ccnc2cc(Cl)ccc12 (stereo not drawn) [chloroquine] | 131 nM | 14.3 nM | 110 nM |
